Measured values taken from patent US20240122848A1, “APPETITE SUPPRESSANT” (priority 2017, published 2024).
Where a name gives a salt, the structure may show the parent alone.

Key:
[1] = cited from earlier work; for Average weight loss/one year: vs. 3% placebo
[2] = Dissolution / solubility observations of ingredients

Row | Compound | patients with 5% weight loss/12 weeks [1] [% patients] | patients with 10% weight loss/12 weeks [1] [% patients] | Average weight loss/one year [1] [%] | also measured
1 | CN[C@H]1CC[C@@H](c2ccc(Cl)c(Cl)c2)c2ccccc21 [ZOLOFT, Sertraline] |  |  |  | evidence of weight loss ([1]; in vivo): No evidence of weight loss
2 | CC1(C)O[C@@H]2[C@@H](CO[C@@]3(COS(N)(=O)=O)OC(C)(C)O[C@@H]23)O1 [TOPAMAX, Topiramate] |  |  |  | efficacy (vs. placebo) ([1]; in vivo): Minimal, if any efficacy
3 | CNCCC(Oc1ccc(C(F)(F)F)cc1)c1ccccc1 (stereo not shown) [PROZAC, Fluoxetine] |  |  |  | evidence of weight loss ([1]; in vivo): No evidence of weight loss
4 | CCCCCCCCCCC[C@@H](C[C@@H]1OC(=O)[C@H]1CCCCCC)OC(=O)[C@H](CC(C)C)NC=O [XENICAL, Orlistat] |  |  |  | weight loss (vs. placebo)/6 months ([1]; 6 months): 5%
5 | CN1CCCC(n2nc(Cc3ccc(Cl)cc3)c3ccccc3c2=O)CC1 (stereo not shown) [Azelastine hydrochloride, Azelastine Hydrochloride] |  |  |  | time to dissolve in purified water with stirring ([2]; added as second ingredient after Purified Water): approximately 5 minutes
6 | C[C@H]1[C@H](c2ccccc2)OCCN1C [BONTRIL, Phendimetrazine] | 80 | 50 | 10 | 
7 | CCN(CC)C(C)C(=O)c1ccccc1 (stereo not shown) [TENUATE, Diethylpropion] | 80 | 50 | 10 | 
8 | C[C@H]1[C@H](c2ccccc2)OCCN1C.O=C(O)C(O)C(O)C(=O)O [ADIPOST] | 80 | 50 | 10 | 
9 | Glycerol ester of hydrogenated rosin [GEHR] |  |  |  | solubility in aqueous solutions [2]: poorly soluble
10 | CC(C)(N)Cc1ccccc1 [ADIPEX, Phentermine] | 80 | 50 | 10 | 
11 | C[C@H]1CNCCc2ccc(Cl)cc21 [BELVIQ, Lorcaserin] |  |  |  | weight loss/year vs. placebo ([1]; per year): 3-5%
12 | C[C@@H](Cc1ccccc1)N(C)Cc1ccccc1 [DIDREX, Benzphetamine] | 80 | 50 | 10 | 
